{
  "source": "paper PMC10174618",
  "about": "“Monoterpenoid aryl hydrocarbon receptor allosteric antagonists protect against ultraviolet skin damage in female mice” (Nature Communications, 2023)",
  "test_in_all_cases": "biochemical",
  "design_in_all_cases": "KINOMEscan scanMAX active site-directed competition binding assay, percent of control, 468 kinases",
  "conditions_in_all_cases": "competition binding, percent of control",
  "key": {"YES": {"target": "T1, YES (Homo sapiens, UniProt P07947)", "T1 construct": "gene YES1", "method_in_brief": "(§1)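 Single-concentration screen (100 μM S-carvone) in a competition binding panel of 468 human kinases (KINOMEscan scanMAX); results given as percent of control, hit cutoff 35%.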"}, "MARK4": {"target": "MARK4 (Homo sapiens, UniProt Q96L34)", "method_in_brief": "as §1"}, "FLT3(D835Y)": {"target": "FLT3(D835Y) (Homo sapiens, UniProt P36888, D835Y)", "method_in_brief": "as §1"}, "YSK4": {"target": "T2, YSK4 (Homo sapiens, UniProt Q56UN5)", "T2 construct": "gene MAP3K19", "method_in_brief": "as §1"}, "FLT1": {"target": "FLT1 (Homo sapiens, UniProt P17948)", "method_in_brief": "as §1"}, "MLK2": {"target": "T3, MLK2 (Homo sapiens, UniProt Q02779)", "T3 construct": "gene MAP3K10", "method_in_brief": "as §1"}, "ZAP70": {"target": "ZAP70 (Homo sapiens, UniProt P43403)", "method_in_brief": "as §1"}, "KIT(D816V)": {"target": "KIT(D816V) (Homo sapiens, UniProt P10721, D816V)", "sequence (P10721 whole entry D816V)": "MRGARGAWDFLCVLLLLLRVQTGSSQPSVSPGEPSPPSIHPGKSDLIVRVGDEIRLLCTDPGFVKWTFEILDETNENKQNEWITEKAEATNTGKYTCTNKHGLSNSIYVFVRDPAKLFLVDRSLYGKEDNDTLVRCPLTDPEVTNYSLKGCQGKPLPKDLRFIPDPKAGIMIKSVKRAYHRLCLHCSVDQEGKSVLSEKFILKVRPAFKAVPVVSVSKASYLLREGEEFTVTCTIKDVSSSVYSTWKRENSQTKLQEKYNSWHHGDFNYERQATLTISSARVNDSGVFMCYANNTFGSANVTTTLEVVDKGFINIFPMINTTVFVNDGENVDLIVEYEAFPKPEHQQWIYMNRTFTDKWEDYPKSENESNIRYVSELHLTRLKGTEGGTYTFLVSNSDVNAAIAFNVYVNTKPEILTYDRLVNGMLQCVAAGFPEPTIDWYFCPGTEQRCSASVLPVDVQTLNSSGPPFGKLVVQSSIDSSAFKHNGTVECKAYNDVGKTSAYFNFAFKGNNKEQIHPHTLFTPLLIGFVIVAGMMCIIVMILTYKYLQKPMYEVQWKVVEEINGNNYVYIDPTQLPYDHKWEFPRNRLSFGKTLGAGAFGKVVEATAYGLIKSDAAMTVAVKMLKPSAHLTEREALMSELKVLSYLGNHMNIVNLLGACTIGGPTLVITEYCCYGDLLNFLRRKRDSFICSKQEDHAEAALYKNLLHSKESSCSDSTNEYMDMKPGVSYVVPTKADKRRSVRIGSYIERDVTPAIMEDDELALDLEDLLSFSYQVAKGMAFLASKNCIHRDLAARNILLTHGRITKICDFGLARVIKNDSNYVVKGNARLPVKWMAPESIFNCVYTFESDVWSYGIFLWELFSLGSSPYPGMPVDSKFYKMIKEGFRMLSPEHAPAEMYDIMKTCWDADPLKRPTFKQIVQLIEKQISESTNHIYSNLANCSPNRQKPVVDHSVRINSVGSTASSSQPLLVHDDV", "method_in_brief": "as §1"}, "ICK": {"target": "T4, ICK (Homo sapiens, UniProt Q9UPZ9)", "T4 construct": "gene CILK1", "method_in_brief": "as §1"}, "STK16": {"target": "STK16 (Homo sapiens, UniProt O75716)", "sequence (O75716 whole entry)": "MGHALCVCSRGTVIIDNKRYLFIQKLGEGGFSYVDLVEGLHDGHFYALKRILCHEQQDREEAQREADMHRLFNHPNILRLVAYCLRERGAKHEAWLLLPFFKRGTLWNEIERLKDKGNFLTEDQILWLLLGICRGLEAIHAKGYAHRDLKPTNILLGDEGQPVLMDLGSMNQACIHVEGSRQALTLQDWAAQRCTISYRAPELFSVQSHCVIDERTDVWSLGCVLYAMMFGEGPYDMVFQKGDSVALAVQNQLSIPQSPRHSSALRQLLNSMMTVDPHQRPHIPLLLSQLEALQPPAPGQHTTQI", "method_in_brief": "as §1"}, "CAMK2A": {"target": "CAMK2A (Homo sapiens, UniProt Q9UQM7)", "method_in_brief": "as §1"}, "ALK(C1156Y)": {"target": "ALK(C1156Y) (Homo sapiens, UniProt Q9UM73, C1156Y)", "method_in_brief": "as §1"}, "CDC2L5": {"target": "T5, CDC2L5 (Homo sapiens, UniProt Q14004)", "T5 construct": "gene CDK13", "method_in_brief": "as §1"}, "CAMK2G": {"target": "CAMK2G (Homo sapiens, UniProt Q13555)", "method_in_brief": "as §1"}, "RET(V804M)": {"target": "RET(V804M) (Homo sapiens, UniProt P07949, V804M)", "method_in_brief": "as §1"}, "ERK3": {"target": "T6, ERK3 (Homo sapiens, UniProt Q16659)", "T6 construct": "gene MAPK6", "T6 sequence (Q16659 whole entry)": "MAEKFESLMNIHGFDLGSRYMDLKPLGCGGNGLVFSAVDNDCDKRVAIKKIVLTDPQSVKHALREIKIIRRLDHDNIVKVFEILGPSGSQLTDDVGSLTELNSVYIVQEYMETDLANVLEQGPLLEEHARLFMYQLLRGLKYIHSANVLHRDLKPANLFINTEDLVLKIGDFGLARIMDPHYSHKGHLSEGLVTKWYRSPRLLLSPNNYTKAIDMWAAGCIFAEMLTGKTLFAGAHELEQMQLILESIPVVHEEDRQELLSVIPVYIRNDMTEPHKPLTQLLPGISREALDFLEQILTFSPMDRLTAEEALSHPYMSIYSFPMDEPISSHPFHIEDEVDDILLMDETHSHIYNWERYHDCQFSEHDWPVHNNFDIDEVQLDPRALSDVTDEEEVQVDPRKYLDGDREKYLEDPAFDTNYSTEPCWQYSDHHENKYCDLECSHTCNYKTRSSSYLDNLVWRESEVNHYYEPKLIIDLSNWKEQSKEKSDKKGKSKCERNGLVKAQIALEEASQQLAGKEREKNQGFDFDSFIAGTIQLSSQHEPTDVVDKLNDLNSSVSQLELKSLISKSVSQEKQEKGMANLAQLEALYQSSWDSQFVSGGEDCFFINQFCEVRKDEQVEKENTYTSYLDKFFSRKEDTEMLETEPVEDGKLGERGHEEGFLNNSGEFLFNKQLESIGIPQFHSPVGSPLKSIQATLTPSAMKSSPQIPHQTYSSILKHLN", "method_in_brief": "as §1"}, "AURKB": {"target": "AURKB (Homo sapiens, UniProt Q96GD4)", "sequence (Q96GD4 whole entry)": "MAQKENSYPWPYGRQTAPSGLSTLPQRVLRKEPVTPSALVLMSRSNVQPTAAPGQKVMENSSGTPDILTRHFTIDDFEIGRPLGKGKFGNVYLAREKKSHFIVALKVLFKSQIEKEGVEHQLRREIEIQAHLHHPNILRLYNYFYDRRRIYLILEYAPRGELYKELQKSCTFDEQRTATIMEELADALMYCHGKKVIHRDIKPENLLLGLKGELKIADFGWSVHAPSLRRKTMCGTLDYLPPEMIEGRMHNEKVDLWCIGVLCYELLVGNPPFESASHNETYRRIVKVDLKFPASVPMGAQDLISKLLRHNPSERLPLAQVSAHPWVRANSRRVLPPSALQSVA", "method_in_brief": "as §1"}, "LCK": {"target": "LCK (Homo sapiens, UniProt P06239)", "sequence (P06239 whole entry)": "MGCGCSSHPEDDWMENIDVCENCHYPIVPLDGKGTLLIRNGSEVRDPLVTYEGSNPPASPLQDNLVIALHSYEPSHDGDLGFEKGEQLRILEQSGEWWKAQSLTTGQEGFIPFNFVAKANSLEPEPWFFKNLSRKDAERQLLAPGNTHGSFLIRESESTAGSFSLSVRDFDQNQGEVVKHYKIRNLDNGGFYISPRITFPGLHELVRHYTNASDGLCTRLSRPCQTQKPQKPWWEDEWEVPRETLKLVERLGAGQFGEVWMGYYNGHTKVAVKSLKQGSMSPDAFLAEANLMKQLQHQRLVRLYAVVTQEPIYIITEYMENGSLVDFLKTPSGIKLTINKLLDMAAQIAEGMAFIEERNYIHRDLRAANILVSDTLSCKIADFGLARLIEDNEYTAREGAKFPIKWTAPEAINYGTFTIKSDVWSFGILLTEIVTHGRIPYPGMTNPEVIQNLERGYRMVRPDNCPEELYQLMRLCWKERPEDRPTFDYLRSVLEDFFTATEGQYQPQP", "method_in_brief": "as §1"}, "CDK3": {"target": "CDK3 (Homo sapiens, UniProt Q00526)", "sequence (Q00526 whole entry)": "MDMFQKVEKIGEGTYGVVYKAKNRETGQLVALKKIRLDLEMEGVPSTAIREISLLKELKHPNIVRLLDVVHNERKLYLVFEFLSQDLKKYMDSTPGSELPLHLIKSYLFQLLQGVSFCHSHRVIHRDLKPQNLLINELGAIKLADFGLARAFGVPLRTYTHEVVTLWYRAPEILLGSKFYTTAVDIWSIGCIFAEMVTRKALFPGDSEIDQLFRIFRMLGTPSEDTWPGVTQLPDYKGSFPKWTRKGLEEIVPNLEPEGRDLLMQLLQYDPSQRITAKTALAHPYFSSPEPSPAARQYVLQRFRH", "method_in_brief": "as §1"}, "TNK1": {"target": "TNK1 (Homo sapiens, UniProt Q13470)", "sequence (Q13470 whole entry)": "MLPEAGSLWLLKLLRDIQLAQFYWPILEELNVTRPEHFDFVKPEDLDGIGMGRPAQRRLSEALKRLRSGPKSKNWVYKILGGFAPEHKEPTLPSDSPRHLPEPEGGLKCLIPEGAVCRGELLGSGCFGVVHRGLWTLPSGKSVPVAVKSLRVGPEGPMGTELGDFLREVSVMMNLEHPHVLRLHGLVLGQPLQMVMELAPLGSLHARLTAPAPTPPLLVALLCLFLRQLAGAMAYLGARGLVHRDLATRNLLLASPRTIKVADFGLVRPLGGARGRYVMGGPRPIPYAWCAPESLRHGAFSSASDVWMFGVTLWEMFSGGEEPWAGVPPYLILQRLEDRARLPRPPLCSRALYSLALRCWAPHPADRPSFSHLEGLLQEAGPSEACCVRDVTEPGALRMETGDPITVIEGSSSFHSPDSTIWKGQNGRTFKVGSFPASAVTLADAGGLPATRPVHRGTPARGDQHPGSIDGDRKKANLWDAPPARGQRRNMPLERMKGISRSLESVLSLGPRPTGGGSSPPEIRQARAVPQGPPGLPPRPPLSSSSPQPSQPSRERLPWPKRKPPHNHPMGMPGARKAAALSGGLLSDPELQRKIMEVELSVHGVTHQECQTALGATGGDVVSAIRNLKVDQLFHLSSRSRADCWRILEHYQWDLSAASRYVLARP", "method_in_brief": "as §1"}, "TSSK3": {"target": "TSSK3 (Homo sapiens, UniProt Q96PN8)", "method_in_brief": "as §1"}, "EPHB3": {"target": "EPHB3 (Homo sapiens, UniProt P54753)", "sequence (P54753 whole entry)": "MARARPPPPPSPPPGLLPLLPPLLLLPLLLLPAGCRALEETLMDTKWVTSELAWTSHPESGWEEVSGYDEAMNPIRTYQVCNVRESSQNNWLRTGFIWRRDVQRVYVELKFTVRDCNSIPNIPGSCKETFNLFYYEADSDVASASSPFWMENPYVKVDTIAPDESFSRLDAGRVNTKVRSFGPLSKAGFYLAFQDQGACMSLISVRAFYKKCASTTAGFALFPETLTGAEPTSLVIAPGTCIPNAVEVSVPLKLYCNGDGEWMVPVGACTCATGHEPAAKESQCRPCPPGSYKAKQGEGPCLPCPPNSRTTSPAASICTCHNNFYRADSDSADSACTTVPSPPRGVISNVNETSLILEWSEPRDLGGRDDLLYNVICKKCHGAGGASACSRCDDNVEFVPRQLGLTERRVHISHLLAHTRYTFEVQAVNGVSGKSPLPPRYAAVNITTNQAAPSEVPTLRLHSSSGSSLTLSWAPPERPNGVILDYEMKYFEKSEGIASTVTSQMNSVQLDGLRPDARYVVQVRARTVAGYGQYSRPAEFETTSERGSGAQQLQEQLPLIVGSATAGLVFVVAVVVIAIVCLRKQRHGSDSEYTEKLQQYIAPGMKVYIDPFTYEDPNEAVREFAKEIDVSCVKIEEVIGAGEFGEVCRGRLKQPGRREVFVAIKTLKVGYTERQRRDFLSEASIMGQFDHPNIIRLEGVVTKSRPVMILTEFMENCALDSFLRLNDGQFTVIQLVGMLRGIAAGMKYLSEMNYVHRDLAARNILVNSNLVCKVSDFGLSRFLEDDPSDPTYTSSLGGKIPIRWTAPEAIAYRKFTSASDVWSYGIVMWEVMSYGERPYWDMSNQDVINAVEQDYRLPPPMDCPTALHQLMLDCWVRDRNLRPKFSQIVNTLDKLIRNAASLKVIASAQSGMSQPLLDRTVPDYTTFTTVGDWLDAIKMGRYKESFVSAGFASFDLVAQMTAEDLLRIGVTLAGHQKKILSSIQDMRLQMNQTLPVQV", "method_in_brief": "as §1"}},
  "data": [
    {"molecule": "C=C(C)[C@H]1CC=C(C)C(=O)C1", "note": "[S-carvone]", "values": [
      {"measurement": "remaining binding at 100 µM", "setting": "YES", "result": 84, "unit": "%"},
      {"measurement": "remaining binding at 100 µM", "setting": "MARK4", "result": 73, "unit": "%"},
      {"measurement": "remaining binding at 100 µM", "setting": "FLT3(D835Y)", "result": 90, "unit": "%"},
      {"measurement": "remaining binding at 100 µM", "setting": "YSK4", "result": 61, "unit": "%"},
      {"measurement": "remaining binding at 100 µM", "setting": "FLT1", "result": 91, "unit": "%"},
      {"measurement": "remaining binding at 100 µM", "setting": "MLK2", "result": 83, "unit": "%"},
      {"measurement": "remaining binding at 100 µM", "setting": "ZAP70", "result": 84, "unit": "%"},
      {"measurement": "remaining binding at 100 µM", "setting": "KIT(D816V)", "result": 78, "unit": "%"},
      {"measurement": "remaining binding at 100 µM", "setting": "ICK", "result": 97, "unit": "%"},
      {"measurement": "remaining binding at 100 µM", "setting": "STK16", "result": 90, "unit": "%"},
      {"measurement": "remaining binding at 100 µM", "setting": "CAMK2A", "result": 79, "unit": "%"},
      {"measurement": "remaining binding at 100 µM", "setting": "ALK(C1156Y)", "result": 70, "unit": "%"},
      {"measurement": "remaining binding at 100 µM", "setting": "CDC2L5", "result": 74, "unit": "%"},
      {"measurement": "remaining binding at 100 µM", "setting": "CAMK2G", "result": 84, "unit": "%"},
      {"measurement": "remaining binding at 100 µM", "setting": "RET(V804M)", "result": 96, "unit": "%"},
      {"measurement": "remaining binding at 100 µM", "setting": "ERK3", "result": 73, "unit": "%"},
      {"measurement": "remaining binding at 100 µM", "setting": "AURKB", "result": 68, "unit": "%"},
      {"measurement": "remaining binding at 100 µM", "setting": "LCK", "result": 71, "unit": "%"},
      {"measurement": "remaining binding at 100 µM", "setting": "CDK3", "result": 92, "unit": "%"},
      {"measurement": "remaining binding at 100 µM", "setting": "TNK1", "result": 100, "unit": "%"},
      {"measurement": "remaining binding at 100 µM", "setting": "TSSK3", "result": 100, "unit": "%"},
      {"measurement": "remaining binding at 100 µM", "setting": "EPHB3", "result": 62, "unit": "%"}
    ]}
  ]
}
